{"source": "patent US10064909B2", "about": "“Compositions and methods for chronic use of a weight-gaining compound” (priority 2015, dated 2018)", "key": {"IGF-1": {"tested_on": "IGF-1", "assay": "91-day cat safety study: serum IGF-1", "format": "in vivo", "details": "cats, 6 mg/kg, compared to placebo controls; sustained, peak at Day 30", "experimental": "This controlled study included two treatment groups with 4 adult cats receiving placebo (Group 1) and 8 adult cats receiving capromorelin (Formulation #9, as described above) (Group 2) for 91 consecutive days. All cats were offered food daily for a 6-hour period following an 11-day acclimation phase. All cats were weighed on Days −11, −1, 1, 14, 30, 59, 75, and 91. On Days 1 through 91, animals were orally administered capromorelin once daily via syringe at dose levels of 0 or 6 mg/kg. At one hour post-dose, all cats were offered food for a 6-hour period. Variables of interest included weight gain/loss, food consumption, clinical pathology, and serum analysis of IGF-1 and GH.\nOn Days 1, 30, 59, and 91, blood samples were collected prior to daily dose administration and at 8 hours post-dose and processed to serum for analysis of IGF-1 and GH levels. […] Serum chemistry parameters measured included albumin (ALB), creatine kinase (CK), albumin/globulin ratio (A\\G), globulin (GLOB), alkaline phosphatase (ALP), glucose (GLU), fructosamine, alanine aminotransferase (ALT), blood urea nitrogen (BUN), phosphorus (PHOS), calcium (Ca), potassium (K), chloride (Cl), sodium (Na), cholesterol (CHOL), total protein (TP), creatinine (CRE), total bilirubin (TBIL), BUN/creatinine ratio, and sodium/potassium ratio."}, "[1]": {"assay": "Safety and effectiveness of daily capromorelin in cats with CKD for 90 days (field study, Example 9)", "format": "in vivo", "experimental": "This study was to confirm the safety and effectiveness of AT-002 (capromorelin) in cats under field conditions using a dose of 2 mg/kg administered once daily for 90 days. The study tested the hypotheses that AT-002 will maintain or increase bodyweight, improve body condition score (BCS), improve muscle condition score (MCS), improve appetite and/or improve quality of life (QoL) in cats. This was a double-masked, randomized, placebo-controlled, multi-site, proof of concept field study.\nThis study enrolled cats diagnosed with chronic kidney disease (CKD) and a minimum 6-month history of losing weight. The enrollment target was for a minimum of 15 evaluable cases in the AT-002 group and 15 evaluable cases in the Control Product (CP; placebo) group. The Investigator and all study personnel were masked to treatment code (A or B) and treatment group (AT-002 or CP). The Dispenser and Owner remained blinded to treatment group (AT-002 or CP).\nCats were treated with a dosage of 2 mg/kg body weight of AT-002 (AT-002) or a placebo (CP) formulation at the same dose volume as the AT-002 once daily for 90±3 days. Day 0 was the first day of dosing. Cats were evaluated on Day 0, Day 14±1, Day 30±2, Day 60±3 and Day 90±3. The primary effectiveness variable was change in bodyweight from Day 0 through Day 90±3. Secondary effectiveness variables included BCS, MCS, owner appetite assessments and owner QoL assessments.\nAfter enrollment, each case was randomly assigned to AT-002 or CP in a 1:1 ratio. The enrollment target was at least 30 evaluable cases (15 AT-002 and 15 CP) per the study randomization schedule across all sites.\nCats included in the study were spayed/neutered cats of any age and breed with a documented historical decrease in bodyweight over the previous 6 months, and a diagnosis of chronic kidney disease (IRIS stages II, III or IV). Cats on medications for certain stable, chronic conditions were allowed. Excluded from the study were cats in crisis or moribund, cats with documented and uncontrolled hyperthyroidism or inflammatory bowel disease, cats in which food intake is contraindicated (i.e. suspected foreign body, gastrointestinal surgery), cats with dental disease severe enough to impair food intake, cats with diabetes, and cats currently receiving prohibited medications.\nThe Owner maintained the feeding regime the cat was on at study enrollment. No special foods and no special feeding schedule were required. Water was available ad libitum. The cat's diet was monitored and a “Diet History” completed when the Investigator interviewed the Owner at screening/qualification (Day 0), Day 30±2, Day 60±3 and Day 90±3 or at the last study visit (i.e. early removal).\nBodyweight was measured in pounds to the nearest tenth decimal place as part of the physical examination at screening/qualification/Day 0, Day 14±1, Day 30±2, Day 60±3 and Day 90±3 and at the time of any unscheduled visit or early removal from the study. […]"}}}
{"smiles": "CN1N=C2CCN(C(=O)[C@@H](COCc3ccccc3)NC(=O)C(C)(C)N)C[C@@]2(Cc2ccccc2)C1=O.O=C(O)C(O)C(O)C(=O)O", "note": "[capromorelin, N-[(2R)-1-[(3aR)-2-methyl-3-oxo-3a-(phenylmethyl)-6,7-dihydro-4H-pyrazolo[4,3-c]pyridin-5-yl]-1-oxo-3-(phenylmethoxy)propan-2-yl]-2-amino-2-methylpropanamide L-tartrate]", "values": [{"measurement": "IGF-1 following treatment", "setting": "IGF-1", "value": "increased"}, {"measurement": "adverse events with evidence for a potential relationship to treatment", "setting": "[1]; 2 mg/kg once daily, 90 days", "value": "increased salivation and potentially vomiting"}, {"measurement": "tolerability", "setting": "[1]; 2 mg/kg once daily, 90 days", "value": "well-tolerated"}, {"measurement": "body condition score, muscle condition score, owner appetite assessment and quality of life parameters", "setting": "[1]; 2 mg/kg once daily, vs placebo", "value": "no meaningful statistical differences"}, {"measurement": "bodyweight during the treatment period", "setting": "[1]; 2 mg/kg oral once daily, 90 days", "value": "gained weight"}, {"measurement": "mean descriptive (monthly) quality of life score", "setting": "[1]; 2 mg/kg, Day 0 to Day 90", "value": "remained the same"}]}
